According to patent publication US4873236A, “Condensed diazepinones, processes for preparing them and pharmaceutical compositions containing these compounds” (Dr. Karl Thomae GmbH, priority 1986, dated 1989):
Like-named read-outs stand apart in the source and are kept apart here. Values belong to the molecule of their own block, whether it stands above or below them.

How the values were obtained:
[1] = target: T1, muscarinic receptors, heart (Rattus norvegicus, UniProt P10980); assay: Receptor bonding test in vitro, heart (displacement of 3H-N-methylscopolamine); type: binding, Sprague-Dawley rats; details: 0.3 nmolar 3H-NMS, 30° C., 45 min, heart
T1 construct: After removal of the heart and submandibular gland; from tissue; host or cells: whole heart of male Sprague-Dawley rats, homogenate
T1 sequence (P10980 1-466): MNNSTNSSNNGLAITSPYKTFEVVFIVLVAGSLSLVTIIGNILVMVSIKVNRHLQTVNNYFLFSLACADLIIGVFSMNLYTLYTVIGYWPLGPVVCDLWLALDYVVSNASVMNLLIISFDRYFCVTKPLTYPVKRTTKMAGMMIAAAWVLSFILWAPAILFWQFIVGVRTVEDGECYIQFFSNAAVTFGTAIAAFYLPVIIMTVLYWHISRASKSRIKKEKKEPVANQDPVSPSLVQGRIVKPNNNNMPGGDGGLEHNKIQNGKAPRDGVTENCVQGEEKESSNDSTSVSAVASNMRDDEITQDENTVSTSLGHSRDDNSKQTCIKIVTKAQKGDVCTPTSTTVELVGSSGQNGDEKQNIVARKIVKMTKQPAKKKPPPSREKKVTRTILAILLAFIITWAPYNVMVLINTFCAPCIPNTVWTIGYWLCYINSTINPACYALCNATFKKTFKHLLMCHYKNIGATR

[2] = target: T2, muscarinic receptors, submandibular gland (Rattus norvegicus, UniProt P08483); assay: Receptor bonding test in vitro, submandibular gland (displacement of 3H-N-methylscopolamine); type: binding, Sprague-Dawley rats; details: 0.3 nmolar 3H-NMS, 30° C., 45 min
T2 construct: After removal of the heart and submandibular gland; from tissue; host or cells: submandibular gland of male Sprague-Dawley rats, homogenate
T2 sequence (P08483 whole entry): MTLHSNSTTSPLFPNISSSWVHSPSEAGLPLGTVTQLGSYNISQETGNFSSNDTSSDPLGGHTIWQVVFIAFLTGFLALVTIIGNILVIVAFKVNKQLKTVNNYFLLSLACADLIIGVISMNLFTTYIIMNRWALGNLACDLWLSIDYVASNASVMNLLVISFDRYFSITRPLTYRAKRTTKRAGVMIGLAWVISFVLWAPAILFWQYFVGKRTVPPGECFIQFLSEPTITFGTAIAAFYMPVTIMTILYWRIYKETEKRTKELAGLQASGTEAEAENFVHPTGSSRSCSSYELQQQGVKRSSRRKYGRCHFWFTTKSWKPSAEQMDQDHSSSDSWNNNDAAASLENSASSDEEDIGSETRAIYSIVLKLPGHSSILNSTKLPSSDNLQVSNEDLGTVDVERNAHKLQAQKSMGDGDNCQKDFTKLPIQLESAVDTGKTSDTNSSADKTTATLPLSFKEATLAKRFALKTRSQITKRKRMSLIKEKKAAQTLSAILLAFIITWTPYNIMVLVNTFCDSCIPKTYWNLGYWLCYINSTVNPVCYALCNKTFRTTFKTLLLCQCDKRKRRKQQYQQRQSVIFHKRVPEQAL

[3] = target: T3, M2 (vagal bradycardia) (Rattus norvegicus, UniProt P10980); assay: M1/M2 selectivity in the rat: inhibition of vagally stimulated bradycardia (M2); type: in vivo, male THOM rats; details: iv, 5 min, read-out: M2 activity (rat) ED50
T3 construct: The bradycardia produced by vagus stimulation; from tissue; host or cells: whole animal (male THOM rats), heart
T3 sequence (P10980 1-466): T1 sequence (P10980 1-466)
Protocol: The method used was described by Hammer and Giachetti (Life Sciences 31, 2991-2998 (1982)). 5 minutes after intravenous injection of increasing doses of the substance, either the right vagus was electrically stimulated (frequency: 25 Hz; pulse width: 2 ms; duration of stimulus: 30 s; number of volts: supramaximal) or 0.3 mg/kg of McN-A-343 was injected intravenously into male THOM rats. The bradycardia produced by vagus stimulation and the increase in blood pressure produced by McN-A-343 were measured.

[4] = target: T4, M1 (rise in blood pressure by McN-A-343) (Rattus norvegicus, UniProt P08482); assay: M1/M2 selectivity in the rat: inhibition of McN-A-343 blood pressure increase (M1); type: in vivo, male THOM rats; details: iv, 5 min
T4 construct: from tissue
T4 sequence (P08482 1-460): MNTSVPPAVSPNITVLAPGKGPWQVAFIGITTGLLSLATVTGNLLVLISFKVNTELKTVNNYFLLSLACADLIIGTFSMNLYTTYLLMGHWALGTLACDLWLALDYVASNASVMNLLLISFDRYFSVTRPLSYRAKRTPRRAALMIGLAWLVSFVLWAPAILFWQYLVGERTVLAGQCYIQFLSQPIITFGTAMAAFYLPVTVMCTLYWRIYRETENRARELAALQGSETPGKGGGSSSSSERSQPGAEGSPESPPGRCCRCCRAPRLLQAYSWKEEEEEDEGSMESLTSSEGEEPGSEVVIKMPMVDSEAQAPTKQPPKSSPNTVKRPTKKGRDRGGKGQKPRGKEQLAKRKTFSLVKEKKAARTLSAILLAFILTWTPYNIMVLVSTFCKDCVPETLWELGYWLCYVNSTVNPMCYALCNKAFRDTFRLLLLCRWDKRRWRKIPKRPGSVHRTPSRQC

[5] = target: T5, muscarinic receptors of the atrium (Cavia porcellus, UniProt H0VRN8); assay: Dissociation constants (KB) on spontaneously beating right atrium, methacholine antagonism; design: species or system guinea pig
T5 construct: In the isolated, spontaneously beating right atrium; from tissue; host or cells: isolated right atrium of guinea pig
T5 sequence (H0VRN8 1-466): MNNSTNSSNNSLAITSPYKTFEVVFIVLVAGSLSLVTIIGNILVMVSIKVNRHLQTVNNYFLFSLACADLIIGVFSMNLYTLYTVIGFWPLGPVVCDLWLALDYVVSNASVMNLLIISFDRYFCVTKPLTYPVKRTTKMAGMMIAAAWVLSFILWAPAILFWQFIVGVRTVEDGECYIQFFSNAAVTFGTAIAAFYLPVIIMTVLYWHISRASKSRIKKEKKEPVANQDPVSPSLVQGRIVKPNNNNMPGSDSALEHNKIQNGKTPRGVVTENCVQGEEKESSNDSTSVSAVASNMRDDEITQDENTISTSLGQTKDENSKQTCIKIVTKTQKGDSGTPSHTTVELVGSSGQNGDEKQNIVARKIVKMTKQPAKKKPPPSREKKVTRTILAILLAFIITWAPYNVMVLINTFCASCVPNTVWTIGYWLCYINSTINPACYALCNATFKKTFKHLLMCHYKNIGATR
Protocol: Dissociation constants (KB values) were determined in vitro on the guinea pig ileum and spontaneously beating atrium. The ileum was removed and incubated in Krebs-Henseleit solution in an organ bath. Contractions were produced by means of increasing concentrations of methacholine (M) so that a full concentration-activity curve could be plotted. Then M was washed out, the test substance was added and kept in contact for 30 minutes and again a concentration-activity curve was plotted with M. The dissociation constant was calculated according to Arunlakshana and Schild (Brit. J. Pharmacol. 14, 48, 1959) from the dosage ratio (DR), i.e. the extent of displacement of the concentration-activity curve.
In the isolated, spontaneously beating right atrium M reduced the heart rate as a function of the concentration. This effect was stopped by the addition of an antimuscarinic. Dissociation constants for the muscarinic receptors of the atrium were obtained in the same way as described above. A comparison of the dissociation constants measured in the two different tissues made it possible to identify cardioselective substances.

[6] = target: T6, muscarinic receptors, lachrymal glands (Rattus norvegicus, UniProt P08483); assay: Receptor bonding test in vivo, lachrymal glands (3H-NMS); design: species or system female rats; details: iv, 0.5 h, read-out: ID50 Lachrymal glands
T6 construct: from tissue; host or cells: lachrymal glands of female rats, labelled in vivo
T6 sequence (P08483 whole entry): as the sequence (P08483 whole entry) above
Protocol: (§1) For these experiments, female rats with a body weight of about 200 g were used. Before the start of the test the animals were anaesthetised with a dosage of 1.25 g/kg of urethane. The animals were each given the prescribed dosage of test substance by intravenous injection. After 15 minutes, 113 ng/kg of ^3 H-N-methylscopolamine (^3 H-NMS) were administered by the same route. After another 15 minutes the animals were killed and the heart, bronchi and lachrymal glands were removed. These organs were dissolved in Soluene R and the radioactivity was determined. The measurements were assumed to be total bonding. […] ID50 values were determined for the individual organs using these tests.

[7] = system: salivation; assay: Salivation-inhibiting effect on the rat (pilocarpine); type: in vivo, male THOM rats; details: Rattus norvegicus, iv, read-out: Salivation inhibition (rat) ED50
Protocol: The secretion of saliva was triggered by subcutaneous administration of 2 mg/kg of pilocarpine. The saliva was soaked up with blotting paper and the area occupied by the saliva was determined by planimetry every 5 minutes. The dosage of substance which reduced the volume of saliva by 50% was determined graphically.

[8] = Solubility in water; details: in words
[9] = target: T7, muscarinic receptors, heart atrium (Rattus norvegicus, UniProt P10980); assay: Receptor bonding test in vivo, heart atrium (3H-NMS); design: species or system female rats; details: rat, iv, 0.5 h, read-out: ID50 Heart Atrium
T7 construct: from tissue; host or cells: heart (atrium, ventricle) of female rats, labelled in vivo
T7 sequence (P10980 1-466): T1 sequence (P10980 1-466)
Protocol: as §1

[10] = target: T8, muscarinic receptors, heart ventricle (Rattus norvegicus, UniProt P10980); assay: Receptor bonding test in vivo, heart ventricle (3H-NMS); design: species or system female rats; details: iv, 0.5 h, read-out: ID50 Heart Ventricle
T8 construct: the heart, bronchi and lachrymal glands were removed; from tissue; host or cells: heart (atrium, ventricle) of female rats, labelled in vivo
T8 sequence (P10980 1-466): T1 sequence (P10980 1-466)
Protocol: as §1

[11] = system: muscarinic receptors, bronchi; assay: Receptor bonding test in vivo, bronchi (3H-NMS); design: species or system female rats; details: in vivo binding, i.v., rat, 113 ng/kg 3H-NMS; 30 min
Protocol: as §1

Structure (SMILES): CCN(CC)CC1CCCCN1CC(=O)N1c2ccccc2C(=O)Nc2cccnc21 (stereo not drawn) [Substance X, 11-[[2-[(diethylamino)methyl]-piperidin-1-yl]acetyl]-5,11-dihydro-6H-pyrido[2,3-b][1,4]benzodiazepin-6-one, reference compound]
- IC50 [1]: 150 nM
- IC50 [2]: 5000 nM
- ED50 ([3]; i.v., 50% reduction in vagal bradycardia): 0.16 mg/kg
- ED50 ([4]; i.v., 50% reduction in blood pressure rise by 0.3 mg/kg McN-A-343, read-out: M1 activity (rat) ED50): 0.988 mg/kg
- Kb ([5]; guinea pig spontaneously beating atrium, methacholine, 30 min contact, read-out: KB Heart (dissociation constant)): 105 nM
- ED50 [6]: > 30 mg/kg

Structure (SMILES): CN1CCN(CC(=O)N2c3ccccc3C(=O)Nc3cccnc32)CC1 [Substance Y, 5,11-dihydro-11-[(4-methyl-piperazin-1-yl)acetyl]-6H-pyrido[2,3-b][1,4]benzodiazepin-6-one, reference compound]
- ED50 [7]: 0.084 mg/kg
- Kb [5]: 240 nM

Structure (SMILES): Cl.O=C1Nc2cccnc2N(C(=O)NCCN2CCCCC2CN2CCCCC2)c2ccccc21 (stereo not drawn) [Example 39, 5,11-Dihydro-11-[[[2-[2-[(piperidin-1-yl)methyl]-piperidin-1-yl]ethyl]amino]carbonyl]-6H-pyrido[2,3-b][1,4]benzodiazepin-6-one hydrochloride]
- solubility in water [8]: soluble in water

- solubility in water [8]: soluble in water
Structure (SMILES): CN(C)CC1CCCCN1CCCCNC(=O)N1c2ccccc2C(=O)Nc2cccnc21 (racemic) [Example 20, D,L-5,11-Dihydro-11-[[[4-[2-[(dimethylamino)methyl]-piperidin-1-yl]butyl]amino]carbonyl]-6H-pyrido[2,3-b][1,4]benzodiazepin-6-one]

- solubility in water [8]: Soluble in water
Structure (SMILES): CCN(CC)CC1CCCCN1CCCNC(=O)N1c2ccccc2NC(=O)c2ccccc21 (stereo not drawn) [Example 8, 5-[[[3-[2-[(Diethylamino)methyl]-piperidin-1-yl]propyl]amino]carbonyl]-5,10-dihydro-11H-dibenzo[b,e][1,4]diazepin-11-one]

Structure (SMILES): CN1C2CCC1CC(OC(=O)C(CO)c1ccccc1)C2 (stereo not drawn) [Substance Z, atropine, reference compound]
- ED50 [3]: 0.004 mg/kg
- ED50 ([4]; read-out: M1 activity (rat) ED50): 0.016 mg/kg
- Kb [5]: 1.41 nM
- ED50 [9]: 0.08 mg/kg
- ED50 [10]: 0.03 mg/kg
- ID50 Bronchi [11]: 0.1 mg/kg
- ED50 [6]: 0.2 mg/kg
